# Source: article PMC3848474, “Different effects of progesterone and estradiol on chimeric and wild type aldosterone synthase in vitro” (Reproductive Biology and Endocrinology : RB&E, 2013)
# Target: T1, wild type aldosterone synthase (ASWT, CYP11B2) (Homo sapiens, UniProt P19099)
# T1 construct: full ASWT cDNA
# T1 sequence (P19099 25-503): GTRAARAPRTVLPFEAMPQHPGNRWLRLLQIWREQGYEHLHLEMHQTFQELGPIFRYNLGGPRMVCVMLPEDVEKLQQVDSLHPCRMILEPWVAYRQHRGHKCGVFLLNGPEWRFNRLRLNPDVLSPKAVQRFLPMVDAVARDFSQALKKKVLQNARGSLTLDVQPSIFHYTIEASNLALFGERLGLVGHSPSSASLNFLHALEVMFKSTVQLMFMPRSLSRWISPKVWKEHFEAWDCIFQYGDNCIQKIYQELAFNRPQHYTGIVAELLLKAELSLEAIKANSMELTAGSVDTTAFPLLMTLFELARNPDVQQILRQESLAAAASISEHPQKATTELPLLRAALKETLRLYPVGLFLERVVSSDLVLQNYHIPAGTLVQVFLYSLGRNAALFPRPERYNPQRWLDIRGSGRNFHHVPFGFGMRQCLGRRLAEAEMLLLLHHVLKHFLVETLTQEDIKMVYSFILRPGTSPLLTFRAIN
# Experiment: aldosterone production from DOC in CYP11B2-transfected HEK-293 cells, HPLC-MS/MS; Km/Vmax shift
# Format: cell-based
compound,measurement,value
CC(=O)[C@H]1CC[C@H]2[C@@H]3CCC4=CC(=O)CC[C@]4(C)[C@H]3CC[C@]12C [progesterone],IC50,2240 nM
